Data taken from the supplement of paper PMC9780213.

Experiments:
Settings in all cases: treatment time: 24 h
U2OS-mOrange2-Peroxisome = assay: cell count relative to DMSO control (panel B, lysosome/peroxisome/lipid stain) (fraction of control); higher = more cells (less toxicity)
Experimental: (§1)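 U2OS-derived cells in 384-well plates were treated for 24 h with a 7-point 2-fold dilution series (top dose 20 µM for most compounds; final max DMSO 1%), then fixed, stained in four marker panels and imaged on a Cellomics ArrayScan. Cell count per treatment (three replicate plates merged) is given as a fraction of DMSO control. Panel A used parental U2OS, panel B U2OS-mOrange2-Peroxisome, panel C1 U2OS-LMNB1-TUBA1B-ACTB (DRAQ5 nuclei).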

U2OS-LMNB1-TUBA1B-ACTB = assay: cell count relative to DMSO control (panel C1, DRAQ5/ER stain) (fraction of control); higher = more cells (less toxicity)
Experimental: as §1

U2OS = assay: cell count relative to DMSO control (panel A, nuclei/RNA/PMG/mitochondria stain) (fraction of control); higher = more cells (less toxicity)
Experimental: as §1

Compound | cell count (U2OS-mOrange2-Peroxisome; 0.3125 µM) | cell count (U2OS-mOrange2-Peroxisome; 0.625 µM) | cell count (U2OS-mOrange2-Peroxisome; 1.25 µM) | cell count (U2OS-mOrange2-Peroxisome; 2.5 µM) | cell count (U2OS-mOrange2-Peroxisome; 5 µM) | cell count (U2OS-mOrange2-Peroxisome; 10 µM) | cell count (U2OS-mOrange2-Peroxisome; 20 µM) | cell count (U2OS-LMNB1-TUBA1B-ACTB; 0.3125 µM) | cell count (U2OS-LMNB1-TUBA1B-ACTB; 0.625 µM) | cell count (U2OS-LMNB1-TUBA1B-ACTB; 1.25 µM) | cell count (U2OS-LMNB1-TUBA1B-ACTB; 2.5 µM) | cell count (U2OS-LMNB1-TUBA1B-ACTB; 5 µM) | cell count (U2OS-LMNB1-TUBA1B-ACTB; 10 µM) | cell count (U2OS-LMNB1-TUBA1B-ACTB; 20 µM) | cell count (U2OS; 0.3125 µM) | cell count (U2OS; 0.625 µM) | cell count (U2OS; 1.25 µM) | cell count (U2OS; 2.5 µM) | cell count (U2OS; 5 µM) | cell count (U2OS; 10 µM) | cell count (U2OS; 20 µM) | cell count (U2OS-mOrange2-Peroxisome; 0.15625 µM) | cell count (U2OS-LMNB1-TUBA1B-ACTB; 0.15625 µM) | cell count (U2OS; 0.15625 µM) | cell count (U2OS-mOrange2-Peroxisome; 0.07812 µM) | cell count (U2OS-LMNB1-TUBA1B-ACTB; 0.07812 µM) | cell count (U2OS; 0.07812 µM)
CO[C@@]12[C@H](COC(N)=O)C3=C(C(=O)C(C)=C(N)C3=O)N1C[C@@H]1N[C@@H]12 [mitomycin-c] | 0.696 | 0.65 | 0.706 | 0.72 | 0.6 | 0.363 | 0.279 | 0.882 | 0.789 | 0.864 | 0.812 | 0.746 | 0.672 | 0.38 | 0.677 | 0.708 | 0.683 | 0.639 | 0.59 | 0.531 | 0.278 |  |  |  |  |  | 
COc1ccc(C2CNC(=O)C2)cc1OC1CCCC1 (stereo not given) [rolipram] | 0.884 | 0.894 | 1 | 0.96 | 1.13 | 0.726 | 1 | 0.979 | 1.14 | 0.963 | 1.03 | 1.01 | 1.02 | 1.01 | 1.04 | 1.07 | 0.964 | 0.96 | 0.915 | 1 | 0.959 |  |  |  |  |  | 
CCCC[C@@H](C=O)NC(=O)[C@H](CC(C)C)NC(=O)[C@H](CC(C)C)NC(C)=O [MG-101] | 0.692 | 0.642 | 0.697 | 0.608 | 0.346 | 0.242 | 0.16 | 1.15 | 1.07 | 1.08 | 0.727 | 0.443 | 0.173 | 0.0712 | 0.986 | 0.975 | 0.773 | 0.429 | 0.198 | 0.14 | 0.0899 |  |  |  |  |  | 
Cc1[nH]c2ccccc2c1CCNC(=O)c1cccs1 [CK-636] | 0.793 | 0.764 | 0.737 | 0.756 | 0.783 | 1.04 | 0.977 | 1.16 | 1.06 | 1.09 | 1.04 | 0.908 | 0.887 | 0.858 | 1.06 | 0.971 | 1.01 | 1.01 | 0.977 | 0.961 | 0.865 |  |  |  |  |  | 
N.N.[Cl][Pt][Cl] [cisplatin] | 0.977 | 0.858 | 0.908 | 0.967 | 1.05 | 0.956 |  | 1.06 | 1.12 | 1.03 | 0.956 | 0.991 | 1.01 |  | 1.04 | 1.12 | 1.03 | 1.02 | 1.02 | 0.948 |  | 1.19 | 1.01 | 1.07 |  |  | 
C[C@H]1CCC/C=C/[C@@H]2C[C@H](O)C[C@H]2[C@H](O)/C=C/C(=O)O1 [brefeldin-a] | 0.53 | 0.567 | 0.55 | 0.574 | 0.515 | 0.544 | 0.557 | 0.698 | 0.697 | 0.661 | 0.616 | 0.632 | 0.584 | 0.529 | 0.543 | 0.545 | 0.527 | 0.584 | 0.586 | 0.644 | 0.577 |  |  |  |  |  | 
CCc1c2c(nc3ccc(OC(=O)N4CCC(N5CCCCC5)CC4)cc13)-c1cc3c(c(=O)n1C2)COC(=O)[C@]3(O)CC [irinotecan] | 0.759 | 0.66 | 0.641 | 0.621 | 0.666 | 0.771 | 0.742 | 0.966 | 0.998 | 0.849 | 0.82 | 0.79 | 0.694 | 0.66 | 0.95 | 0.795 | 0.732 | 0.665 | 0.64 | 0.592 | 0.612 |  |  |  |  |  | 
O=NN(CCCl)C(=O)NC1CCCCC1 [lomustine] | 0.854 | 1.08 | 0.93 | 0.952 | 1.22 | 1.12 | 0.879 | 0.906 | 0.972 | 0.927 | 0.932 | 1.02 | 0.856 | 0.73 | 0.856 | 0.819 | 0.952 | 0.895 | 1.02 | 0.818 | 0.7 |  |  |  |  |  | 
CC[C@H]1/C=C/C=C/C[C@@H](C)[C@H](O)[C@@](C)(O)C(=O)[C@@H](C)[C@H](O)[C@@H](C)C(=O)[C@@H](C)[C@H](O)[C@@H](C)/C=C/C(=O)O[C@@H]2[C@H](C)[C@H](CC1)O[C@]1(CC[C@H](C)[C@H](C[C@@H](C)O)O1)[C@H]2C [oligomycin-a] | 0.906 | 0.944 | 0.895 | 0.858 | 1.21 | 1.09 |  | 1.03 | 1.07 | 1 | 1.03 | 1.09 | 1.05 |  | 0.986 | 0.995 | 1.04 | 0.938 | 0.99 | 0.925 |  | 0.52 | 0.621 | 0.555 |  |  | 
Nc1c2ccccc2nc2ccccc12 [9-aminoacridine] | 1.12 | 0.733 | 0.6 | 0.346 | 0.104 | 0.0699 | 0.0813 | 1.11 | 1.05 | 1.12 | 0.826 | 0.239 | 0.0589 | 0.0515 | 1.08 | 1.12 | 1 | 0.751 | 0.383 | 0.226 | 0.254 |  |  |  |  |  | 
CC(NC(=O)c1ccccc1/N=C/c1c(O)ccc2ccccc12)c1ccccc1 (stereo not given) [sirtinol] | 0.607 | 0.507 | 0.491 | 0.365 | 0.37 | 0.373 | 0.339 | 0.886 | 0.842 | 0.727 | 0.552 | 0.338 | 0.357 | 0.367 | 0.858 | 0.782 | 0.659 | 0.462 | 0.195 | 0.192 | 0.17 |  |  |  |  |  | 
O=c1[nH]c(=O)n([C@H]2C[C@H](O)[C@@H](CO)O2)cc1F [floxuridine] | 1.52 | 1.54 | 1.34 | 1.14 | 1.11 | 0.829 | 1.31 | 1.06 | 1 | 0.979 | 0.737 | 0.792 | 0.929 | 0.892 | 0.806 | 0.815 | 0.744 | 0.681 | 0.609 | 0.58 | 0.558 |  |  |  |  |  | 
CC(=O)N[C@H]1[C@@H](O[C@@H]2O[C@H](CC(O)[C@H]3O[C@@H](n4ccc(=O)[nH]c4=O)[C@H](O)[C@@H]3O)[C@H](O)[C@H](O)[C@H]2NC(=O)/C=C/CC(C)C)O[C@H](CO)[C@@H](N)[C@@H]1O (stereo not given in full) [tunicamycin] | 0.558 | 0.528 | 0.587 | 0.448 | 0.517 |  |  | 0.555 | 0.626 | 0.596 | 0.552 | 0.491 |  |  | 0.663 | 0.582 | 0.61 | 0.535 | 0.535 |  |  | 0.477 | 0.611 | 0.654 | 0.498 | 0.934 | 0.979
Cc1c2oc3c(C)ccc(C(=O)N[C@@H]4C(=O)N[C@H](C(C)C)C(=O)N5CCC[C@H]5C(=O)N(C)CC(=O)N(C)[C@@H](C(C)C)C(=O)O[C@@H]4C)c3nc-2c(C(=O)N[C@@H]2C(=O)N[C@H](C(C)C)C(=O)N3CCC[C@H]3C(=O)N(C)CC(=O)N(C)[C@@H](C(C)C)C(=O)O[C@@H]2C)c(N)c1=O [dactinomycin] | 1.08 | 1.07 | 1.01 | 0.743 | 0.663 | 0.243 | 0.139 | 1.05 | 1.09 | 1 | 0.993 | 0.824 | 0.661 | 0.418 | 0.928 | 0.89 | 0.807 | 0.741 | 0.73 | 0.381 | 0.229 |  |  |  |  |  | 
Cc1ccc(S(=O)(=O)c2ccc([N+](=O)[O-])o2)cc1 | 0.934 | 0.938 | 0.864 | 1.16 | 0.964 | 0.837 |  | 1.1 | 1.02 | 1.12 | 1.1 | 1.02 | 0.982 |  | 0.974 | 1.04 | 1.05 | 1.01 | 0.917 | 0.886 |  | 0.927 | 1.01 | 1.02 |  |  | 
